In publication PMC11603075 (Communications Biology, 2024):

How the values were obtained:
KDM4E [1] = target: T1, KDM4E (Homo sapiens, UniProt B2RXH2); experiment: Inhibition of KDM4E arginine hydroxylation (ROH), LC–MS; format: biochemical; settings: for inhibition of +16 Da product formation: KDM4E with H2a(1–20)
T1 construct: KDM4E1–337; made in house; host or cells: E. coli
T1 sequence (B2RXH2 1-337): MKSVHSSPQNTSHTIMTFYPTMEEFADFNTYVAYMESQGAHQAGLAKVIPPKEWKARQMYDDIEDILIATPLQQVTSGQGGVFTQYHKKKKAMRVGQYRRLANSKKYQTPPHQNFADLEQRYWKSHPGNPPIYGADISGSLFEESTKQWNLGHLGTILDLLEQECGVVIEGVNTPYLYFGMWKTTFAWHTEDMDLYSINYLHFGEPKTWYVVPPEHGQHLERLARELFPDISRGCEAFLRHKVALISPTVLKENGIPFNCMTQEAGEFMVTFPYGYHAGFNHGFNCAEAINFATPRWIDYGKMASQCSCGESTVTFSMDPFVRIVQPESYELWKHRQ
Procedure: µM (NH4)2Fe(SO4)2, and 50 mM HEPES (pH 7.5). (c,d) Inhibition of arginine hydroxylation (ROH) activity of KDM4E by small molecule 2OG oxygenase inhibitors. ( c ) ROH activity measurements were performed using an LC–MS based assay (Error bars; +/- SD; n = 3 independent assays). Conditions: 10 µM H2a(1 -20) incubated with 1 µM KDM4E, 100 µM sodium L-ascorbate, 10 µM (NH4)2Fe(SO4)2 and 100 µM 2OG.
Reactions wer e quenched after 90 min. […]

KDM4A = experiment: MALDI–TOF MS screen of biotin-tagged H2a(1–20)R3X peptides with KDM4A; format: biochemical, human; settings: for RDM activity: initial screen, biotinylated peptides
Source text: (§1) To investigate whether histone H2a is a JmjC-KDM substrate, we initially used mass spectrometry (MS) to screen a set of biotinylated N-terminal H2a(1–20) peptides with post-translational modifications (PTMs) at Arg-3, i.e. asymmetrically/symmetrically di-methylated Arg-3 (H2aR3me2a, H2aR3me2s, respectively), mono-methylated Arg-3 (H2aR3me1) and citrullinated Arg-3 (H2aR3Ci), against KDM4A, KDM4D, KDM4E and KDM5C. […] H2a(1–20)R3me2a, which appeared to be the most efficient RDM substrate in the screen, was then re-synthesised without a biotin tag and tested for RDM activity using the catalytic domains of all KDM4/KDM5 subfamily members.
(§2) MS-based screening assays with peptides and calf thymus histones were as reported; see Supplementary Table 6 for conditions. Time course assays were based on reported procedures. In brief, equal volumes of the enzyme and substrate solutions were combined to initiate the reaction; 10 µL of 2% (v/v) formic acid (HCOOH) in ddH2O or 100% methanol was added to 10 µL of the reaction mixture to quench reactions at different time points. Unless otherwise stated, time course assays were carried out in triplicate. In some cases, LC–MS was used instead of MALDI-TOF MS to avoid a MALDI matrix induced artefact with the hydroxylated product (Supplementary Fig. 16).
(§3) Supplementary Figure 1 Initial Screen of H2a fragments with KD M4 A, KDM4D, KDM4E, and KDM5C.
(§4) KDM4D, KDM4E, and KDM5C with H2a(1–20)R3X peptides from the AltaBioscience peptide library (Set 5) […]
(§5) (potentially), KDM4E, and KDM5C with H2a(1–20)R3me2a; KDM4E and KDM5C with H2a(1–20)R3me2s; and KDM5C wit h H2a(1–20 )R3 me1 . +1 6 Da mass shift s corr esponding t o hydr oxylat ion, were observed wit h […]
(§6) 20), and H2a(1–20)Ci3 (only with KDM4E).
(§7) H 2 a( 1–20)Ci3 and KDM5C with H2a(1–20 ) . […]
(§8) peptides except H2a(1–20)R3me2a. * Low-level peaks indicating ~10% demethylation. Experiments were repeated with the same results. For assay conditions see Supplementary Table 6 (n = 2, independent assays). Peptides were synthesised linked with C-terminal Nε-(D-biotin)-L- ly si ne -amide group (see
(§9) Supplementary Table 5 ) . […]
(§10) (1 picture or pasted object on this page, not shown here)
(§11) [ E nz ym e] [Peptide] [2OG] [Ascorbate] [(NH4)2F e(S O4)2] [TCEP] Buffer pH7.5 Enzyme Cognate substrate (mM) (mM) (mM) (mM) (mM) (mM) [HE PE S]
(§12) Supplementary Table 6 Summary of MS assay conditions for substrate screening. These conditions enabled efficient turnover of established substrates. Reactions were carried out at 37 °C unless otherwise st ated. […]

KDM4D = experiment: MALDI–TOF MS screen of biotin-tagged H2a(1–20)R3X peptides with KDM4D; format: biochemical, human; settings: 60 min, n = 2
Source text: as §1, §2, §3, §4, §5, §6, §7, §8, §9, §10, §11, §12

KDM4E [2] = target: T1, KDM4E; experiment: MALDI–TOF MS screen of biotin-tagged H2a(1–20)R3X peptides with KDM4E; format: biochemical; settings: for +16 Da mass shift (hydroxylation) / −14 Da mass shift (demethylation): 60 min, KDM4E, MALDI–TOF MS, n = 2; for RDM activity: initial screen, biotinylated peptides
Source text: as §1, §2, §3, §4, §5, §6, §7, §8, §9, §10, §11, §12

KDM5C = target: T2, KDM5C (Homo sapiens, UniProt P41229); experiment: MALDI–TOF MS screen of biotin-tagged H2a(1–20)R3X peptides with KDM5C; format: biochemical; settings: for mass shift / −14 Da mass shift (demethylation): 60 min, KDM5C, MALDI–TOF MS, n = 2; for RDM activity: initial screen, biotinylated peptides
T2 construct: KDM5C 1– 765; made in house; host or cells: Sf9 cells
T2 sequence (P41229 1-765): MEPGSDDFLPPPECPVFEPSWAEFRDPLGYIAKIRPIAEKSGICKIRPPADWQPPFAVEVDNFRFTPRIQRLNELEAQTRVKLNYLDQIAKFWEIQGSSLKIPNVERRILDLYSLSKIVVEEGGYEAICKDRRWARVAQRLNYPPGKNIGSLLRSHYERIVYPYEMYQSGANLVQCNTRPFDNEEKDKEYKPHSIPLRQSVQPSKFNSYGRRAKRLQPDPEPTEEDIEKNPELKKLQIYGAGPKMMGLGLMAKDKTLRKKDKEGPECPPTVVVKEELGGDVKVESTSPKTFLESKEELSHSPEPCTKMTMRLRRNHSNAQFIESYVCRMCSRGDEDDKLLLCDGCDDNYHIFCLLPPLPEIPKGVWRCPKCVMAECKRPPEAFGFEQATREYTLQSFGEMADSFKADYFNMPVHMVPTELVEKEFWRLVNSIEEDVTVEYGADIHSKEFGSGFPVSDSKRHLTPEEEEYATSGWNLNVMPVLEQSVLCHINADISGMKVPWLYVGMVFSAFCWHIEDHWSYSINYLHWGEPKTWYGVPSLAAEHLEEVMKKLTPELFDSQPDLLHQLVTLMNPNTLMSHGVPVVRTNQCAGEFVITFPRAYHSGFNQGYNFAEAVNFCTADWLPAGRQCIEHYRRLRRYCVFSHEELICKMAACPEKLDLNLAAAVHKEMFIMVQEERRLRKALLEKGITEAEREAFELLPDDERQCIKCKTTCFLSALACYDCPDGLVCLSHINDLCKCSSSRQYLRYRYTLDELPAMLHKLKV
Source text: as §1, §2, §3, §4, §5, §6, §7, §8, §9, §10, §11, §12

[3] = 60 min, 2 µM KDM4A, 10 µM peptide, MALDI–TOF MS, n = 2

## O=C(O)c1ccnc(C(=O)O)c1 [2,4-PDCA, 2,4-pyridine dicarboxylic acid]
KDM4E [1]
  inhibition of +16 Da product formation: inhibited

## Oc1cccc2cccnc12 [IOX1, 8-hydroxyquinoline]
KDM4E [1]
  IC50: 22.9 µM
  inhibition of +16 Da product formation: inhibited

## O=C(O)CNC(=O)C(=O)O [NOG, N-oxalylglycine]
KDM4E [1]
  inhibition of +16 Da product formation: inhibited

## SGR GKQ GGKAR AKAKT R SSR - NH - Ahx - K- B i oti n [H2a(1–20) (AB), biotinylated H2a(1–20)]
KDM4A; [3]
  mass shift: No mass shifts were observed
KDM4D
  +16 Da mass shift (hydroxylation): potentially
KDM4E [2]
  +16 Da mass shift (hydroxylation): observed
KDM5C
  mass shift: No mass shifts were observed

## SGR[C i]GKQGGKARAKAKTRSSR-NH-Ahx-K-Biotin [H2a(1–20)Ci3 (AB), biotinylated H2a(1–20) with citrullinated Arg-3]
KDM4A; [3]
  mass shift: No mass shifts were observed
KDM4D
  mass shift: No mass shifts were observed
KDM4E [2]
  +16 Da mass shift (hydroxylation): observed
KDM5C
  mass shift: No mass shifts were observed

## SGR[me1]GKQGGKARAKAKTRSSR-NH-Ahx-K-Biotin [H2a(1–20)R3me1 (AB), biotinylated H2a(1–20) with mono-methylated Arg-3]
KDM4A; [3]
  mass shift: No mass shifts were observed
KDM4A
  RDM activity: to a lesser extent
KDM4D
  +16 Da mass shift (hydroxylation): potentially
KDM4E [2]
  +16 Da mass shift (hydroxylation): observed
  RDM activity: Evidence for RDM activity
KDM5C
  −14 Da mass shift (demethylation): observed
  RDM activity: Evidence for RDM activity

## SGR[me2a]GKQGGKARAKAKTRSSR-NH-Ahx-K-Biotin [H2a(1–20)R3me2a (AB), biotinylated H2a(1–20) with asymmetrically di-methylated Arg-3, AltaBioscience library]
KDM4A; 60 min, 2 µM KDM4A, 10 µM peptide, 37 °C, MALDI–TOF MS, n = 2
  −14 Da mass shift (demethylation): observed
KDM4A
  RDM activity: to a lesser extent
KDM4D
  +16 Da mass shift (hydroxylation): potentially
  −14 Da mass shift (demethylation): potentially
KDM4E [2]
  +16 Da mass shift (hydroxylation): observed
  −14 Da mass shift (demethylation): observed
  RDM activity: Evidence for RDM activity
KDM5C
  −14 Da mass shift (demethylation): observed
  RDM activity: Evidence for RDM activity

## SGR[me2s ]GKQGGKARAKAKTRSSR-NH-Ahx-K-Biotin [H2a(1–20)R3me2s (AB), biotinylated H2a(1–20) with symmetrically di-methylated Arg-3]
KDM4A; [3]
  mass shift: No mass shifts were observed
KDM4A
  RDM activity: to a lesser extent
KDM4D
  +16 Da mass shift (hydroxylation): potentially
KDM4E [2]
  +16 Da mass shift (hydroxylation): observed
  −14 Da mass shift (demethylation): observed
  RDM activity: Evidence for RDM activity
KDM5C
  −14 Da mass shift (demethylation): observed
  RDM activity: Evidence for RDM activity
